Columns and labels:
[1] = system: Human recombinant GST-PI3K; assay: PI3K induced-lipid phosphorylation, neomycin-SPA scintillation proximity assay; format: biochemical; details: Human recombinant GST-PI3K, SPA
[2] = system: IgM-induced Akt phosphorylation in B cell; assay: IgM-induced Akt phosphorylation in B cell (PBMC, flow cytometry); format: cell-based; details: human PBMC, CD19+ IgM+ B cells, read-out: IC50 μM, inhibition of IgM-induced Akt phosphorylation
Protocol: Human PBMC were prepared from a Buffy coat (Geneve Hospital) after a Ficoll gradient (Ficoll-Paque™ Plus PHARMACIA ref: 17-1440-03).
Cell concentration was adjusted to 10^6 cells per mL in RPMI (GIBCO Ref: 72400-21) without serum. Before stimulation, 90 μl of PBMC suspension was incubated with 10 μl of diluted compound in a 96 well round bottom plate for 20 minutes at 37° C.
For B cell activation, 30 μl of Fab′2 Goat anti IgM (Jackson Immuno-research) at10 μg/mL was added to each well. After 5 minutes, cell activation was stopped with 4% paraformaldehyde (10 minutes at room temperature).
Fixed PBMC were then treated for 20 minutes with 0.15% Triton, washed twice with PBS and permeabilized with 50% methanol for 15 minutes.
PBMC were washed twice in PBS, resuspended in: PBS-4% FCS and incubated with anti P-Akt ( 1/100 dilution) for one h at room temperature.
After one wash, PBMC were further stained for 30 minutes with a mixture of anti-CD19-PE (BD Biosciences), anti-IgM-FITC (BD Biosciences) and goat anti rabbit IgG-Alexa 647 (Molecular probe).
After washing, PBMC (Peripheral Blood Mononuclear Cells) were analysed on a FACSCalibur instrument (BD Biosciences) equipped with a 633 helium-neon laser, or stored at 4° C. for further analysis. 510^3 B cells events were gathered per sample in the CD19 positive region.
For the analysis, a threshold was applied on P-Akt histogram of CD19+ IgM+ lymphocytes cells from the non stimulated samples and the percentage of cells above this threshold was determined for each sample.

[3] = system: IgM-induced Akt phosphorylation in B cell in the presence of whole blood; assay: IgM-induced Akt phosphorylation in B cell in the presence of whole blood; format: cell-based; details: Homo sapiens, CD19+ IgM+ cells, read-out: IC50 μM, inhibition of IgM-induced Akt phosphorylation in the presence of whole blood
Protocol: 100 μl of blood are pre-incubated in falcon tube (352063) for 20 minutes at 37° C.
For B cell activation 100 μl of Fab′2 Goat anti Human IgM (30 ug/mL final) is added to each tube and cells are maintained at 37° C.
After 5 minutes, cell activation is stopped with 130 μl Formaldehyde 10% (4% final) and cells are left 10 minutes at room temperature.
Fixed cells are then treated 30 minutes with Triton 0.1% final (add 1 mL of 0.15% Triton)
After several washes with PBS (red cells lysed progressively during washes, 3-4 washes are necessary), cells are transferred in 96 well plate and permeabilized with 50% ice cold Methanol (resuspend first the cells with 80 μl PBBS and then with 80 μl 100% ice cold Methanol) and put on ice for 15 minutes. Plate can be stored in −20° C. in methanol and surface staining performed another day).
Cells are washed twice with PBS and once with the staining buffer-PBS-4% FCS.
Cells are incubated with anti P-Akt (1/70 dilution) In staining buffer for one h.
After a wash with staining buffer, cells are stained with a mixture of anti CD19-PE (3 ul/well), anti-IGM-FITC (3 ul/well), Goat anti rabbit IgG-Alexa 647 (1/500), goat IgG (1/200) for 30 minutes.
After a wash, cells are resuspended in staining buffer or PBS, kept in fridge or immediately passed on a FACSCalibur instrument (BD Biosciences) equipped with a 633 helium-neon laser (red laser).
P-akt histogram of CD19+IGM+ cells is represented and a threshold is set with the non stimulated sample. The parameter reported for each sample is the % of positive cells above this cursor. A representative example is set out in FIG. 1.

[4] = Ex-vivo IgM-induced Akt phosphorylation in mouse after oral administration; details: male, C57Bl/6, blood
Protocol: Compounds are dissolved in 0.5% Carboxymethylcellulose containing 0.25% Tween 20 in water and administered orally to each mouse (6-8 weeks old C57B1/6 males from janvier) in a volume of 10 mL/kg. Half an hour before blood collection, heparin at 100 U/kg is injected intraperitonealy to each mouse. At appropriate Tm (maximum exposure) mice are sacrificed and blood collected by intra-cardiac puncture in heparinised tubes.
Blood is pre-incubated at 37° C. for 20 minutes, then an equal volume of Fab′2 Goat anti-Mouse IgM (μspecific, Jackson ImmunoResearch) at 60 μg/mL is added to each tube. B cell activation is terminated after 3 minutes using formaldehyde 4% final and red blood cells are lysed with another 30 minutes Triton X-100 0.1% treatment. Further to several washes with PBS, cells are transferred in a 96 well plate, permeabilized with 50% ice cold Methanol and put on ice for 15 minutes.
Cells were washed PBS before being incubated for one hour with a Rabbit anti Phospho-Akt antibody (4058 from Cell Signaling) in PBS-4% FCS. […]
Cells were analysed on a FACSCalibur instrument (BD Biosciences) equipped with a 633 helium-neon laser (red laser) and 5.10^3 B cells are collected. A threshold was applied on P-Akt histogram of B220^+ IgM+ lymphocytes from the non stimulated tube and the percentage of cells above this threshold is determined for each sample.

Class I PI3-kinases = details: Fruman et al., 1998; read-out: IC50 against each of the various Class I PI3-kinases; cited from earlier work
CK2 protein kinase = CK2 protein kinase (Homo sapiens (Human), UniProt P68400); details: Fruman et al., 1998; cited from earlier work
Sequence of CK2 protein kinase (P68400 whole entry): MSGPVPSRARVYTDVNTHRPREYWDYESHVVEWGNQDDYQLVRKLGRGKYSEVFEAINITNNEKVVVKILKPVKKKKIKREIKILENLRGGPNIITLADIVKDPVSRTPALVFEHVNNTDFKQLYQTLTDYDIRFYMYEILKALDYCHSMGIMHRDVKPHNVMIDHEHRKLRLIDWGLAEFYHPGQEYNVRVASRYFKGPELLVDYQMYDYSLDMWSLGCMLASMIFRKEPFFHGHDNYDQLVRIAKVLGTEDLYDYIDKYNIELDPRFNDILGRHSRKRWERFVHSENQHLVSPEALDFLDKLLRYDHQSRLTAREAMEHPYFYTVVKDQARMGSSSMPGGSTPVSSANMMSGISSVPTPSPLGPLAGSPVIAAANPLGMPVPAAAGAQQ

| IC50 [1] [µM] | IC50 [2] [µM] | IC50 [3] [µM] | Tmax [4] [min] | SMILES | IC50 (Class I PI3-kinases) [µM] | IC50 (CK2 protein kinase) [µM] |
| --- | --- | --- | --- | --- | --- | --- |
| 0.11 | 0.07 | 1 | – | COc1ccc(CC2CCN(C)CC2)c(Nc2nc3ccccc3nc2NS(C)(=O)=O)c1 [Example 13, N-[3-({5-methoxy-2-[(1-methylpiperidin-4-yl)methyl]phenyl}amino)quinoxalin-2-yl]methanesulfonamide] | – | – |
| 0.043 | 0.07 | 0.3 | – | COc1ccc(CC2CCN(C)CC2)c(Nc2nc3ccccc3nc2NS(=O)(=O)c2cn(C)cn2)c1 [Example 11, N-[3-({5-methoxy-2-[(1-methylpiperidin-4-yl)methyl]phenyl}amino)quinoxalin-2-yl]-1-methyl-1H-imidazole-4-sulfonamide] | – | – |

Second part, the compound before the results:

| SMILES | IC50 [1] [µM] | IC50 [2] [µM] | IC50 [3] [µM] | Tmax [4] [min] | IC50 (Class I PI3-kinases) [µM] | IC50 (CK2 protein kinase) [µM] |
| --- | --- | --- | --- | --- | --- | --- |
| COc1ccc(CN2CCN(C)CC2)c(Nc2nc3ccccc3nc2NS(=O)(=O)c2cccnc2)c1 [Example 81, N-[3-({5-methoxy-2-[(4-methylpiperazin-1-yl)methyl]phenyl}amino)quinoxalin-2-yl]pyridine-3-sulfonamide] | 0.049 | 0.03 | 1.9 | 15 | – | – |
| COC[C@H]1OC(=O)c2coc3c2[C@@]1(C)C1=C(C3=O)[C@@H]2CCC(=O)[C@@]2(C)C[C@H]1OC(C)=O [Wortmannin] | – | – | – | – | 0.001 to 0.01 | – |
| O=c1cc(N2CCOCC2)oc2c(-c3ccccc3)cccc12 [LY294002] | – | – | – | – | – | 5000 to 10000 |

Source: patent publication US8614215B2, “Quinoxaline inhibitors of phosphoinositide-3-kinases (PI3Ks)” (Merck Serono SA, priority 2007, dated 2013)
